Measurements as given in patent US10280218B2, “Antibodies binding to BMP4, and uses thereof” (ACADEMISCH MEDISCH CENTRUM, priority 2014, dated 2019).

T1: BMP5 (Homo sapiens, UniProt P22003)
T1 sequence (P22003 317-454): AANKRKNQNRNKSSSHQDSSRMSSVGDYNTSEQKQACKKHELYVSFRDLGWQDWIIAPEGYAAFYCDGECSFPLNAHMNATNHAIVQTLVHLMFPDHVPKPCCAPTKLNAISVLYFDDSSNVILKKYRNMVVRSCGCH

T2: BMP2 (Homo sapiens, UniProt P12643)
T2 sequence (P12643 283-396): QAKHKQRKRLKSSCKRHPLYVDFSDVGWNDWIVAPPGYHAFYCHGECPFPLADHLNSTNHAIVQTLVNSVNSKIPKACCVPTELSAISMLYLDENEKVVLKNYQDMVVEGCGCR

B1: Gremlin: natural BMP antagonist (R&D Systems) (protein)
chain: KKKGSQGAIPPPDKAQHNDSEQTQSPPQPGSRTRGRGQGRGTAMPGEEVLESSQEALHVTERKYLKRDWCKTQPLKQTIHEEGCNSRTIINRFCYGQCNSFYIPRHIRKEEGSFQSCSFCKPKKFTTMMVTLNCPELQPPTKKKRVTRVKQCRCISIDLD

What was measured:
Test in all cases: BMP activity luciferase reporter assay (BRE-luciferase, ID1 promoter) in C2C12 cells
BMP9 = type: cell-based, mouse; conditions: 25 ng/ml hBMP9, 16 h; LDN 0.5 μM; DMH1 0.2 μM
Description: (§1) C2C12 cells were plated in 96-well plates when they reached confluency, cells were treated in triplicate with 25 ng/ml of BMP9, 50 ng/ml of BMP10 or 50 ng/ml of BMP12 (all from R&D Systems), for 16 hours. VHHs or Noggin were added at a concentration of 5 ug/ml. C2C12 cells or HEK293 were plated on 12-well plates and starved for 5 hours, before stimulation with 2 ng/ml of TGF-β (R&D Systems) or 100 ng/ml Activin-A (R&D Systems), respectively. VHHs at the indicated concentrations were added at the same time. After 1 hour cells were lysed, and protein isolation and SDS-PAGE separation were performed as described previously. For protein detection the following antibodies were used: antiphospho-SMAD2 at 1:1000 (Cell Signaling).
(§2) C2C12 cells were cultured in 96-well plates at 5×10^3 cells/well. After overnight attachment cells were stimulated with 10 ng/ml hBMP4 (Cat No. 314-BP-020; R&D Systems), 50 ng/ml hBMP2 (Cat No. 355-BM-010; R&D Systems), 200 ng/ml hBMP5 (Cat No. 615-BMC-020; R&D Systems), 50 ng/ml hBMP6 (Cat No. 506-BP-020; R&D Systems), 200 ng/ml hBMP7 (Cat No. 354-BP-010; R&D Systems), 25 ng/ml hBMP9 (Cat No. 3209-BP-010; R&D Systems), 25 ng/ml hBMP10 (Cat No. 2926-BP-025; R&D Systems), 50 ng/ml hBMP12 (Cat No. 779-G7-010; R&D Systems) and with or without VHH antibodies: C4C4 and C8C8 at 500 ng/ml; natural antagonist: mNoggin (Cat No. 1967-NG-025; R&D Systems), hNoggin (Cat No. 6057-NG; R&D Systems) and mGremlin (cat#956-GR-050; R&D Systems) at 500 ng/ml; chemical antagonist: 0.5 μM LDN-193189 (Cat No. 11802; Cayman Chemical) and 0.2 μM DMH1 (Cat No. 57146; Selleckchem).

BMP10 = type: cell-based, human; conditions: 25 ng/ml hBMP10, 16 h; LDN 0.5 μM; DMH1 0.2 μM
Description: as §1
C2C12 cells were cultured in 96-well plates at 5×10^3 cells/well. […]

human BMP4 = type: cell-based, mouse; conditions: LDN 0.5 μM, DMH1 0.2 μM; for specificity / selectivity across BMP2, 4, 5, 6, 7, 9, 10, 12: VHH 500 ng/ml
Description: (§3) One of the most studied BMP target genes is the Inhibitor of Differentiation 1 (ID1). This is an immediate early gene that is activated by binding of the phosphorylated SMADs to its promoter region (López-Rovira et al., 2002). Thus, we employed the BMP-responsive C2C12 cells, which are stably transfected with the BRE-luciferase vector containing the BMP-Responsive-Element (the mouse ID1 promoter) cloned into the pGL3 luciferase vector (Zilberberg 2007). […] C2C12 cells were treated with the different BMPs with or without our VHHs or human Noggin at a concentration of 5 μg/ml. Luciferase activity was measured after 16 hours incubation. Most of the transcriptional data is in concordance with the results obtained with the phosphorylation of SMAD1/5/8.
(§4) C2C12 cells were plated in 96-well plates at 5×10^3 cells/well and cells were allowed to attach overnight. 100 μl of DMEM with 0.1% BSA were added in each well. VHH antibodies and human Fc-Noggin at the indicated concentrations were added at the same time. Wells with unstimulated cells were added as controls. Cells were treated in triplicate with the BMPs at the indicated concentrations for 16 hours. Luciferase activity was measured by adding 100 μl of luciferase substrate solution from the Bright-Glo™ Luciferase Assay System (Promega Benelux, Leiden, The Netherlands). After 3 minutes of incubation, luciferase activity was measured with Synergy HT Multi-Mode Microplate Reader (Biotek, Winooski, Vt., United States). Luciferase values were normalized to background activity (activity of wells with no cells) and represented as ratio to the activity of BMP-stimulated cells.
(§5) To evaluate the extent of this increase in potency, the IC50 of the different VHHs were determined in a dose-dependent inhibition assay in C2C12 cells (FIG. 25). C2C12 cells were plated in 96-well plates at 5×10^3 cells/well and cells were allowed to attach overnight 100 μl of DMEM with 0.1% BSA were added in each well. VHH antibodies were added at the indicated concentrations at the same time as 5 ng/ml BMP4 (FIG. 25A-B, D) or 50 ng/ml of BMP2 (FIG. 25C,D). Luciferase activity was measured after 16 hours. Values are represented as ratio to the activity of BMP-stimulated cells. […] However, its effects were more striking for BMP2 rather than BMP4 inhibition. […] The IC50 values for BMP4 inhibition observed in our VHHs are considerably lower than those observed for anti-BMP4 commercially available from R&D (Katagiri et al 1994) and those described in WO_2008/030611.
as §2
(§6) VHH efficacy was evaluated by stimulating cells with 10 ng/ml of hBMP4 and 50 ng/ml of hBMP2, with and without increase concentrations (from 0.1-10 μg/ml) of VHH and anti-BMP4 antibodies: clone 66119, clone 3H2, clone M912262, clone PA354-16.1.1, Clone EPR6211, and anti-BMP4 (ab39973). […] Unstimulated cells were used as controls and wells with no cells used to normalize the background activity. […]

BMP5 = biological target: T1, BMP5; type: cell-based, mouse; design: purchased R&D Systems 615-BMC-020; conditions: 200 ng/ml hBMP5, 16 h; VHH, Noggin, Gremlin 500 ng/ml; LDN 0.5 μM; DMH1 0.2 μM
Description: as §3
as §4, with “Cells were treated in triplicate with the BMPs at the indicated concentrations for 16 hours.” left out, “Luciferase values were normalized to background activity (activity of wells with no cells) and represented as ratio to the activity of BMP-stimulated cells.” left out

BMP2 = biological target: T2, BMP2; type: cell-based, mouse; conditions: 50 ng/ml hBMP2, 16 h; VHH, Noggin, Gremlin 500 ng/ml; LDN 0.5 μM; DMH1 0.2 μM
Description: as §3, §4, §5, §2, §6

Molecule | inhibition of BMP-9-derived signals, comparison of inhibitors (BMP9) | inhibition of BMP-10-derived signals, comparison of inhibitors (BMP10) | specificity / selectivity across BMP2, 4, 5, 6, 7, 9, 10, 12 (human BMP4) | inhibition of BMP5 signals, comparison of inhibitors (BMP5) | inhibition of BMP4-derived signals, comparison of inhibitors (human BMP4; 10 ng/ml hBMP4, 16 h, VHH, Noggin, Gremlin 500 ng/ml) | inhibition of BMP-2 signals, comparison of inhibitors (BMP2)
CC(C)Oc1ccc(-c2cnc3c(-c4ccnc5ccccc45)cnn3c2)cc1 [DMH1] | shown to inhibit | shown to inhibit | even less selective than Noggin | – | – | –
c1ccc2c(-c3cnn4cc(-c5ccc(N6CCNCC6)cc5)cnc34)ccnc2c1 [LDN, LDN-193189] | shown to inhibit | shown to inhibit | even less selective than Noggin | – | – | –
B1 | – | – | – | greatly inhibit | greatly inhibit | greatly inhibit
